Test results published in US20040147494A1, “Use” (priority 2001, published 2004).

Tests used:
[1] = biological target: T1, 11 β-HSD type 2 (Rattus norvegicus, UniProt P50233); experiment: biochemical; conditions: rat kidney cytosol 150 μL, 60 min, 37° C., cortisol (F) to cortisone (E), vs control without inhibitor, means n=2; for inhibition at 10 µM: read-out: % […]→E ± SD, inhibitor 10 μM, read-out: % INHIBITION F→E ± SD
T1 construct: Both the kidneys and livers were homogenised on ice in PBS- sucrose buffer; tissue Harlan Olac, Bicester, Oxon, UK (rats); host or cells: rat kidney homogenate supernatant (Wistar rat)
T1 sequence (P50233 1-400): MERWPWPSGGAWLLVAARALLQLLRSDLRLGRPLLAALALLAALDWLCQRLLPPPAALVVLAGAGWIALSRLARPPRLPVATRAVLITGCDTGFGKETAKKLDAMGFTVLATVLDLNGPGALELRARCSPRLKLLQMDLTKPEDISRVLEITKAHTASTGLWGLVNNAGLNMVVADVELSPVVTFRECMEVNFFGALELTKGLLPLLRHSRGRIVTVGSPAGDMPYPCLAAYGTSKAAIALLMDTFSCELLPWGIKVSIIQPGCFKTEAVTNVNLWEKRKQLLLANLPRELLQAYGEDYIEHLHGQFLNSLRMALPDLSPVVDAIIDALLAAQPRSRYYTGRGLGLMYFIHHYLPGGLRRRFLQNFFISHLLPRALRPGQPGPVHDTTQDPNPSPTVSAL
Description: Enzymes—Rat livers and rat kidneys were obtained from normal Wistar rats (Harlan Olac, Bicester, Oxon,UK). Both the kidneys and livers were homogenised on ice in PBS- sucrose buffer (1 g/10 ml) using an Ultra-Turrax. After the livers and kidneys were homogenised the homogenate was centrifuged for five minutes at 4000 rpm. The supernatant obtained was removed and stored in glass vials at −20° C. The amount of protein per μl of rat liver and kidney cytosol was determined using the Bradford method.
The same procedure was used for the 11 β-HSD type 2 assay, the conversion F to E, to determine the amount of rat kidney to be used and the incubation time.
In these assays the influence of different inhibitors on the 11 β-HSD activity both in reductive (type 1) and oxidative (type 2) directions were assessed. In the reductive direction E is the substrate and F the product and visa versa in the case of oxidation. The method described here is for the oxidative direction.
The substrate solution contained about 50,000 cpm/ml ^3H—F in PBS-sucrose and 0.5 pM F. 1 ml of the substrate solution was added to each tube, the inhibitors were also added, at a 10 μM concentration, to each tube except to the “control” and “blank” tubes. 150 μL was added to all tubes except to the blanks, this was done to correct for the amount of ^3H[…]. The tubes were incubated for 60 minutes in a mechanically shaken water bath at 37° C. […] After incubation 50 μL of recovery was added to correct for the losses made in the next steps, containing 5000 cpm/50 μL of ^14C-E and 50 μg/50 μL of unlabelled E (to visualise the spot on the TLC-plate). The aqueous mixture was then extracted with 4 ml of ether (2×30 sec cycle, vortex mix). After freezing the aqueous phase, the ether (upper) layer was decanted into smaller tubes and evaporated at 45° C. until completely dry. The residue was then re-dissolved in 6 drops of ether and transferred to a TLC-plate. The TLC-plate was developed in chloroform:methanol (9:1 v/v) solvent system, the TLC-plate ran for about 90 minutes until the solvent front had moved about 18 cm. The position of the product E was visualised under UV-light and cut out from the TLC-plate and put into scintillation vials. Radioactivity was eluted over 5 minutes with 0.5 ml methanol. 0.5 ml of PBS- sucrose and 10 ml of Ecoscint were then added and vortex mixed before counting in the scintillation counter. Before counting the samples, two total activity vials were prepared. These contained 0.5 ml of the substrate solution, 50 μL of the recovery, 0.5 ml of methanol and 10 ml of Ecoscint. These two total activity vials were needed to determine the amount of ^14C-E and ^3H—F added in the beginning to make the calculations.
To look at the percentage of inhibition four different concentrations, 1, 5, 10 and 20 μM, were used. The method for both the rat liver, type 1 the reductive, and rat kidney, type 2 the oxidative, stay the same throughout the entire experiment.
In this experiment the influence of different inhibitors on the conversion E to F and F to E was determined. The reason why inhibition in both directions was examined was to make a comparison between the inhibitors and which type of 11 β-HSD they inhibit more. Thirty-two compounds were screened for their ability to inhibit 11 β-HSD type 1 (E to F) and type 2 (F to E). […] The percent of inhibition was calculated as the percentage of decrease in radio labelled ^3H-E and ^3H—F of product formed, compared with the control activity (the tubes without an inhibitor in it). All the results calculated are means, n=2.

[2] = biological target: T2, 11 β-HSD type 1 (Rattus norvegicus, UniProt P16232); experiment: biochemical; assay type: biochemical; conditions: rat liver cytosol 25 μL, 90 min, 37° C., cortisone (E) to cortisol (F), vs control without inhibitor, means n=2; for inhibition at 10 µM: read-out: % […]→F ± SD, inhibitor 10 μM, read-out: % INHIBITION E→F ± SD
T2 construct: Both the kidneys and livers were homogenised on ice in PBS- sucrose buffer; tissue Harlan Olac, Bicester, Oxon, UK (rats); host or cells: rat liver homogenate supernatant (Wistar rat)
T2 sequence (P16232 whole entry): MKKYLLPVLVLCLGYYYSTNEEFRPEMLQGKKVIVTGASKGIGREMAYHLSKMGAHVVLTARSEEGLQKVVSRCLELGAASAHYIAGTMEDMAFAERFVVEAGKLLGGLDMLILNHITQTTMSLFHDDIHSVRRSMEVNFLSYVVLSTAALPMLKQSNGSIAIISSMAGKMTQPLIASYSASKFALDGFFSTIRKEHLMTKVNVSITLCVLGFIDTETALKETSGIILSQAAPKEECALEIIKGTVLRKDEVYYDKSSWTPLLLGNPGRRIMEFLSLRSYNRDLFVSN

Row | Structure (SMILES) | melting point | inhibition at 10 µM [1] [%] | inhibition at 10 µM [2] [%] | % INHIBITION F→E ± SD ([1]; inhibitor 10 μM, 10 µM) [%] | % INHIBITION E→F ± SD ([2]; inhibitor 10 μM, 10 µM) [%]
1 | CC(C)(C)OC(=O)[C@@]1(C)CC[C@]2(C)CC[C@]3(C)C(=CC(=O)C4[C@@]5(C)CC[C@H](O)C(C)(C)C5CC[C@]43C)[C@@H]2C1 (stereo partly drawn) | 171 to 174 °C | – | – | – | –
2 | CC1(C)C2CC[C@]3(C)C(C(=O)C=C4[C@@H]5C[C@@](C)(C(=O)OCCc6ccccc6)CC[C@]5(C)CC[C@]43C)[C@@]2(C)CC[C@@H]1O (stereo partly drawn) | 171 to 172 °C | – | – | – | –
3 | CC1(C)C2CC[C@]3(C)C(C(=O)C=C4[C@@H]5C[C@@](C)(C(=O)OCCCc6ccccc6)CC[C@]5(C)CC[C@]43C)[C@@]2(C)CC[C@H]1O (stereo partly drawn) | 114 to 116 °C | – | – | – | –
4 | CC(C)OC(=O)[C@@]1(C)CC[C@]2(C)CC[C@]3(C)C(=CC(=O)C4[C@@]5(C)CC[C@H](O)C(C)(C)C5CC[C@]43C)[C@@H]2C1 (stereo partly drawn) | 271 to 273 °C (dec.) | – | – | – | –
5 | CC1(C)C2CC[C@]3(C)C(CC=C4[C@@H]5C[C@@](C)(C(=O)OCCc6ccccc6)CC[C@]5(C)CC[C@]43C)[C@@]2(C)CC[C@@H]1O (stereo partly drawn) | 153 to 155 °C | – | – | – | –
6 | CC(O)C1CCC2C3CCC4=C[C@@H](O)CC[C@]4(C)C3[C@H](O)C[C@]12C (stereo in doubt) [STX125, 3,11,20-Trihydroxyproqesterone] | 122 to 125 °C | 72.2 ± 4.3 | 85.1 ± 3.4 | – | –
7 | CC(O)C1CCC2C3CCC4=C[C@@H](O)CC[C@]4(C)C3[C@H](OCc3ccccc3)C[C@]12C (stereo in doubt) [STX-126, 11α-benzyloxy-3,20-dihydroxyprogesterone] | 117 to 118 °C | 13.5 ± 2.97 | 33.8 ± 0.354 | – | –
8 | COC(=O)[C@@]1(C)CC[C@]2(C)CC[C@]3(C)C(=CCC4[C@@]5(C)CC[C@H](O)C(C)(C)C5CC[C@]43C)[C@@H]2C1 (stereo partly drawn) [DG 383 B] | 291 to 293 °C | – | – | – | –
9 | COC(=O)[C@@]1(C)CC[C@]2(C)CC[C@]3(C)C(=CCC4[C@@]5(C)CC[C@H](O)C(C)(C)C5CC[C@]43C)[C@@H]2C1 (stereo partly drawn) [DGS01092 B] | 135 to 137 °C | – | – | – | –
10 | CC(=O)C1CCC2C3CCC4=CC(=O)CC[C@]4(C)C3C(=O)C[C@]12C (stereo partly drawn) [STX124, 11-Oxo-progesterone] | 182 to 183 °C | 92.6 ± 2.1 | 100 ± 6.8 | – | –
11 | CO[C@@H]1C[C@]2(C)C(C(C)=O)CCC2C2CCC3=CC(=O)CC[C@]3(C)C21 (stereo partly drawn) [STX193, 11α-Methoxyprogesterone] | 164 to 165 °C | 68.2 ± 3.68 | 48.1 ± 0.313 | – | –
12 | CCOC(=O)[C@@]1(C)CC[C@]2(C)CC[C@]3(C)C(=CC(=O)C4[C@@]5(C)CC[C@H](O)C(C)(C)C5CC[C@]43C)[C@@H]2C1 (stereo partly drawn) [STX196, 3β-hydroxy-11-oxo-18β-glycyrrhetinic acid ethyl ester] | 93 to 94 °C | 97.5 ± 1.37 | 80.7 ± 2.14 | – | –
13 | CC1(C)C2CC[C@]3(C)C(C(=O)C=C4[C@@H]5C[C@@](C)(C(=O)OCC6CCCCC6)CC[C@]5(C)CC[C@]43C)[C@@]2(C)CC[C@@H]1O (stereo partly drawn) [STX198, 3β-hydroxy-11-oxo-18β-glycyrrhetinic acid cyclohexylmethyl ester] | 98 to 99 °C | 33 | 52.3 ± 1.25 | 33.1 ± 1.838 | –
14 | CC(=O)C1CCC2C3CCC4=CC(=O)CC[C@]4(C)C3[C@H](OCc3ccccc3)C[C@]12C (stereo partly drawn) [STX 185, 11α-Benzyloxyprogesterone] | 207 to 210 °C | 18.9 ± 4.2 | 14 | – | 16.1 ± 10.4
15 | CC(=O)O[C@H]1CC[C@@]2(C)C(CC[C@]3(C)C2CC=C2[C@@H]4C[C@@](C)(C(=O)OCc5ccccc5)CC[C@]4(C)CC[C@]23C)C1(C)C (stereo partly drawn) [STX 354, 11-Deoxo-3β-aectoxy-18β-glycyrrhetinic acid benzyl ester] | 207 to 208 °C | 13.6 ± 1.42 | -1.18 ± 9.22 | – | –
